Data taken from article PMC9233675, “Ru(II) photocages enable precise control over enzyme activity with red light” (Nature Communications, 2022).
pIC50: −log10 of the molar value. “And” between values parts separate entries of the source, which are not always exact repeats. Identical values can stand only once.

How the values were obtained:
CYP19A1 = target: T1, CYP19A1 (Homo sapiens, UniProt P11511); experiment: In cell activity assay for CYP19A1 (dibenzylfluorescein conversion, HEK293 T-Rex cells); type: cell-based; conditions: Dark; conversion of dibenzylfluorescein (DBF); read-out: IC50 CYP19A1 Dark
T1 sequence (P11511 1-503): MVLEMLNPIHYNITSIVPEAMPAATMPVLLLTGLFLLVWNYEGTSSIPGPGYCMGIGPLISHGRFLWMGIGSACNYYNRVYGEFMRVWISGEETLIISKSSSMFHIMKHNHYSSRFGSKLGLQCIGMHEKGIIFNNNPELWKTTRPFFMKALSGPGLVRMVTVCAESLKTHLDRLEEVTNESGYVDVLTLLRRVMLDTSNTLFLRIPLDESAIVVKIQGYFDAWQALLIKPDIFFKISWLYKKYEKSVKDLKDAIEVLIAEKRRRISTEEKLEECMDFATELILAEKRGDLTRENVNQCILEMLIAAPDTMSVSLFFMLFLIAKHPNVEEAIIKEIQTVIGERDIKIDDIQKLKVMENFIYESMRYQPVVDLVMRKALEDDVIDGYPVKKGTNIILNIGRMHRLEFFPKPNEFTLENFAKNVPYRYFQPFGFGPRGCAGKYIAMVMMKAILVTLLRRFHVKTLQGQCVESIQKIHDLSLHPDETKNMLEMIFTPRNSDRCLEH
Method: Thus, the activity against CYP19A1 was evaluated using a recently developed in-cell fluorometric assay.
REE or DBF was added as described above.

[1] = Cellular viability (resazurin to resorufin, 72 h); type: cell-based, human; conditions: human, parental HEK293 T-Rex cells, HEK293 T-Rex, after 72 hrs; for viability at 72 h, 1.11 μM: Log Conc 0.045757; for viability at 72 h, 3.33 μM: Log Conc 0.522879; for viability at 72 h, 30 μM: Log Conc 1.47712; for viability at 72 h, 0.37 μM: Log Conc -0.43136; for viability at 72 h, 0.123 μM: Log Conc -0.90849; for viability at 72 h, 0.0412 μM: Log Conc -1.38561; for viability at 72 h, 0.0137 μM: Log Conc -1.86273
Method: (§1) The cells were >70% viable at 72 h with 10 μM compound, as quantified by metabolically active cells determined by the conversion of resazurin to resorufin (Supplementary Figs. 18–20).
(§2) The parental HEK T-Rex cell line was maintained as above, in the absence of Zeocin. Compounds were serially diluted in media, and the cells were dosed from 0–30 μM compound, and then incubated at 37 °C (n = 3). […] The cells were incubated with the compound in the dark for 30 min prior to light exposure, using the same parameters as in the enzyme activity assay, and then treated as above.

HEK293 T-Rex cell line = experiment: Cellular viability (resazurin to resorufin, 72 h); type: cell-based, human; conditions: HEK293 T-Rex, after 72 hrs
Method: as §1, §2

CYP1B1 D333N = target: T2, CYP1B1 D333N (Homo sapiens, UniProt Q16678, D333N); experiment: In cell CYP1B1 activity assay, D333N variant; conditions: for logSI D333N: log of the ratio of IC50 values mutant vs WT (Fig. 3c)
T2 sequence (Q16678 1-543 D333N): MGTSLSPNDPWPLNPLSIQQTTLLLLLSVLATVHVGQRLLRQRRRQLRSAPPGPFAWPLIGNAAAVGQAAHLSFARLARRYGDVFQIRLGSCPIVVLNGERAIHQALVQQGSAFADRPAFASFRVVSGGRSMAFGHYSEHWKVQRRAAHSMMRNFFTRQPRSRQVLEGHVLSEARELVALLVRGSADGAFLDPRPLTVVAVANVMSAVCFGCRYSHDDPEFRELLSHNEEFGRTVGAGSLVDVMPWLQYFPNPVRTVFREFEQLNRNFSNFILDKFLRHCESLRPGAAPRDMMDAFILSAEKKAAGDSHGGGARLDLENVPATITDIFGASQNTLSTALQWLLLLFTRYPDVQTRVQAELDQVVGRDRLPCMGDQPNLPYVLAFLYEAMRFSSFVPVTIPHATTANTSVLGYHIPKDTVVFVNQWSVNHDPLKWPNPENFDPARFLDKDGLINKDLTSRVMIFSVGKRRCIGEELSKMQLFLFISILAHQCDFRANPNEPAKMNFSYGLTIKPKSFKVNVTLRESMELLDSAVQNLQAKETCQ
Description: Site directed mutagenesis was used to probe the importance of specific active-site contacts identified through the structural assessment (Fig. 3a, b) and simulations. In all cases, conservative mutations were made to maintain polar or hydrophobic character and approximate size. The aromatic residues that frame the inhibitor binding site, Phe143 and Phe231, were mutated to Leu to determine the importance of the π interactions. In addition, the Ser127 residue, located in the upper corner of the active site on the B-C loop, was chosen for mutation based on the simulations. This amino acid transiently contacts the inhibitors, but also forms a hydrogen bond with Asp326 of the I-helix, and thus may impact the position of this helix with regards to the B-C loop. […] Rather than directly mutating these residues in the I-helix, neighboring residues Gln332 and Asp333 were targeted, with the hope of interrupting amino acid interactions that position the helix within the active site.
The ratio of IC50 values for the WT vs. the mutant are shown in Fig. 3c and reflects the importance of the specific contact; the log of the value is used to aid in visualization.
(§3) Cell lines were seeded onto Geltrex coated 96-well plates at 40,000 cells/well, and grown overnight in DMEM media containing 1 μg/mL tetracycline. The media was then replaced with Opti-MEM supplemented with 2% FBS and 1 μg/mL tetracycline. Compounds were serially diluted in Opti-MEM supplemented with 2% FBS and 1 μg/mL tetracycline and an equal volume of compound added to the cells (n = 3). Following a 1 h incubation, resorufin ethyl ether (REE; for CYP1B1 and 1A1) or dibenzylfluorescein (DBF; for 19A1) was added to the cells for a total concentration of 5 μM for REE and 1 μM for DBF. […] Dose–response curves were generated in Prism and normalized using the no-compound control (set as 100% activity) and the no-cell control (set as 0% activity; this value in the raw data reflects the background fluorescence of the dye alone).

[2] = Stability of compounds in rat liver microsomes; conditions: for Remaining, % (NCF=60min): rat liver microsomes, no co-factor (no NADPH)
CYP1A1 = target: T3, CYP1A1 (Homo sapiens, UniProt P04798); experiment: In cell activity assay for CYP1A1 (7-ethoxyresorufin conversion, HEK293 T-Rex cells); conditions: for % Enzyme Activity: CYP1A1, dark
T3 sequence (P04798 1-512): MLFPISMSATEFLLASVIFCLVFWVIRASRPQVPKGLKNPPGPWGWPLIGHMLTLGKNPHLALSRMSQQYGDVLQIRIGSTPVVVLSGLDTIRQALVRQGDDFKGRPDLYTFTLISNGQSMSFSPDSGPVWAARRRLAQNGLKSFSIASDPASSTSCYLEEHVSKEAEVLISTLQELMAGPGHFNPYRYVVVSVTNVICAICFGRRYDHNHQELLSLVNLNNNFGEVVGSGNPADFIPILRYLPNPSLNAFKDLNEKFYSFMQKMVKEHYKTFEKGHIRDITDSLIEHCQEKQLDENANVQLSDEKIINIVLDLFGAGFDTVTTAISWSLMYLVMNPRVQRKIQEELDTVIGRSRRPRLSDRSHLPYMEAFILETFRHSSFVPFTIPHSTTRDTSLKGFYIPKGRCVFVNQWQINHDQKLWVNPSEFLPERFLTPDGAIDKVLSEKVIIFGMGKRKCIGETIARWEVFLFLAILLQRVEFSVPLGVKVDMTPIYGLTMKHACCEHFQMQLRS
Description: A stable HEK cell line was created with CYP1B1 expression under the control of tetracycline to facilitate regulated and titratable expression (see the Methods section for more details). A cell line was also created for CYP1A1 as a counter screen to evaluate selectivity. […] The fluorogenic substrate, 7-ethoxyresorufin (REE), is a validated substrate for both CYPs and was used in both assays. Cytochrome P450 oxidoreductase (POR) is the required reductase partner for CYPs, and was also overexpressed in these systems to improve catalytic efficiency and the resulting signal for the assay.
Both the CYP and POR expression was under the control of the TetO2 inducible CMV promoter[26].
Cell lines were generated in the HEK293 T-Rex cell line. Following transfection, cells were selected with 500 μg/mL Zeocin, and 7.5 μg/mL Blasticidin to create a stable pool. Inducible expression of CYP and POR was confirmed by immunoblot. […] The lines were maintained with 250 μg/mL Zeocin and 7.5 μg/mL Blasticidin to ensure continued selective pressure.
as §3
For the light-activated compounds, the experiment was modified as follows: Cells were seeded and grown overnight as described above. Media was replaced with L-15 containing 1 μg/mL tetracycline; L-15 media was used in place of opti-MEM™ to maintain CO2 outside the incubator, and to prevent cellular damage from light. Compounds were serially diluted in L-15 with 1 μg/mL tetracycline and added to the cells followed by a 1 h incubation. […] REE or DBF was added as described above.

| Structure (SMILES) | pIC50 (CYP19A1) | viability at 72 h, 1.11 μM [1] [%] | viability at 72 h, 3.33 μM [1] [%] | viability at 72 h, 30 μM [1] [%] | viability at 72 h, 0.37 μM [1] [%] | viability at 72 h, 0.123 μM [1] [%] | viability at 72 h, 0.0412 μM [1] [%] | viability at 72 h, 0.0137 μM [1] [%] | % Viable (HEK293 T-Rex cell line; Log Conc 0.045757) | % Viable (HEK293 T-Rex cell line; Log Conc 0.522879) | % Viable (HEK293 T-Rex cell line; Log Conc 1) | % Viable (HEK293 T-Rex cell line; Log Conc 1.47712) | % Viable (HEK293 T-Rex cell line; Log Conc -0.43136) | % Viable (HEK293 T-Rex cell line; Log Conc -0.90849) | % Viable (HEK293 T-Rex cell line; Log Conc -1.38561) | % Viable (HEK293 T-Rex cell line; Log Conc -1.86273) | logSI D333N (CYP1B1 D333N) | Remaining, % (NCF=60min) [2] [%] | % Enzyme Activity (CYP1A1; Log Conc 0.045757) | % Enzyme Activity (CYP1A1; Log Conc 0.522879) | other results |
| --- | --- | --- | --- | --- | --- | --- | --- | --- | --- | --- | --- | --- | --- | --- | --- | --- | --- | --- | --- | --- | --- |
| COc1ccc(/C=C/c2ccncn2)c(OC)c1 [Compound 2] | 4.97 | 97.3 | 79.8 | 51.9 | 85.2 | 89.2 | 92 | 93.4 | 94.5248% and 84.1248% | 84.1669% and 88.3577% | 69.8564% and 78.2941% | 51.1449% and 56.2608% | 92.2822% and 92.2261% | 98.0989% and 92.2261% | 94.0623% and 98.2391% | 98.7016% and 97.4401% | 1.8 | 47.1 | 97.5755% and 125.129% and 102.858% | 79.4229% and 93.0687% and 81.8125% | viability at 72 h, 10 μM ([1]; Log Conc 1): 64.5%; pIC50 (CYP1B1 D333N): 5.30; Ratio IC50 (mutant)/ IC50 (WT), D333N (CYP1B1 D333N): 66; CLint scaled ([2]; rat, liver microsomes): 369 mL/min/kg; Remaining, % (T=60min) ([2]; rat, liver microsomes): 0.3%; half-life ([2]; rat, liver microsomes): 6.75 min; microsomal CLint ([2]; rat, liver microsomes): 205 µL/min/mg; % Enzyme Activity (CYP1A1; Log Conc 1): 15.2494% and 25.1537% and 27.5852%; % Enzyme Activity (CYP1A1; Log Conc -0.43136): 110.341% and 133.598% and 109.681%; % Enzyme Activity (CYP1A1; Log Conc -0.90849): 118.484% and 126.806% and 121.555%; % Enzyme Activity (CYP1A1; Log Conc -1.38561): 117.981% and 113.967% and 112.29%; % Enzyme Activity (CYP1A1; Log Conc -1.86273): 107.668% and 117.038% and 124.375%; % Enzyme Activity (CYP1A1; Log Conc -2.33985): 98.3615% and 101.034% and 100.604%; SI (1B1:1A1) (CYP1A1; ratio of IC50 CYP1A1 to CYP1B1, for complexes 4–6 the IC50 (light) values were used): 175 |
| COc1cc(/C=C/c2ccc(OC)cc2OC)cc(OC)c1 [Compound 1, reference compound] | < 4.52 | 91.2 | 76.6 | 68.4 | 98.9 | 98.4 | 97.1 | 99.3 | 81.8963% and 90.1938% | 71.5944% and 78.1539% | 79.5836% and 68.5529% | 62.2316% and 63.1567% | 95.7862% and 89.6612% | 94.8612% and 92.8008% | 93.2073% and 97.8887% | 106.593% and 96.3469% | 2 | 63.7 | 58.9151% and 62.8214% and 61.5139% | 20.9441% and 25.477% and 27.5679% | % Enzyme Activity (CYP1A1; Log Conc 1): 2.088% and 2.407% and 5.1678%; % Enzyme Activity (CYP1A1; Log Conc -0.43136): 94.4495% and 93.088% and 89.9544%; % Enzyme Activity (CYP1A1; Log Conc -0.90849): 109.334% and 103.31% and 104.553%; % Enzyme Activity (CYP1A1; Log Conc -1.38561): 108.032% and 102.127% and 103.391%; % Enzyme Activity (CYP1A1; Log Conc -1.86273): 103.764% and 105.887% and 103.748%; % Enzyme Activity (CYP1A1; Log Conc -2.33985): 105.601% and 99.1121% and 95.2869% |
